These results are taken from patent publication US9662327B2 (AGIOS PHARMACEUTICALS, INC, priority 2011, dated 2017).

pIC50: −log10 of the molar value.

Sequence of IDH1 R132H (O75874 whole entry R132H): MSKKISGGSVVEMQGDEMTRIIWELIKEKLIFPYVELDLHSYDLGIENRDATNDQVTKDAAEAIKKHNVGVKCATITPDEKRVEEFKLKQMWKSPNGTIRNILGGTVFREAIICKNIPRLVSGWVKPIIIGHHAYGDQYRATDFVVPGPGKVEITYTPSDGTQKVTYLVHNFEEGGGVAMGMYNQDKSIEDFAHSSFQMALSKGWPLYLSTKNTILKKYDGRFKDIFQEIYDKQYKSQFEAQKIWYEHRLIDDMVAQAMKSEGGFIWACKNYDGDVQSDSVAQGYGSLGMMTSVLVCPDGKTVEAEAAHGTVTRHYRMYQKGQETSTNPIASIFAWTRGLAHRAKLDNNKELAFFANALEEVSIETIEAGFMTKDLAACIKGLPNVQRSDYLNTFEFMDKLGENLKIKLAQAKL

For one test, the target named is IDH1 R132H (Homo sapiens (Human), UniProt O75874, R132H). Kind of test: Assays for IDH1 R132H Inhibitors (NADPH/aKG, resazurin detection). Format: biochemical. The conditions noted are these: IDH1 R132H enzyme, Table 2; read-out: IDHR132H Activity. The gist of the method:
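Substrate mix held 8 uM NADPH plus 2 mM aKG; buffer was 20 mM Tris pH 7.5 with 150 mM NaCl, 10 mM MgCl2, 0.03% BSA. After 50 min room-temperature reaction, NADPH remaining was detected with 30 μM resazurin mix over 5 min.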
(The colour change of resazurin is a common sign of viable cells or microbes.)
For the compound `CSCCC(=O)N1CCN(c2nc(C(C)C)c3c(c2C#N)CC(C)(C)OC3)C[C@H]1C` [Compound 267, (R)-8-isopropyl-3,3-dimethyl-6-(3-methyl-4-(3-(methylthio)propanoyl)piperazin-1-yl)-3,4-dihydro-1H-pyrano[3,4-c]pyridine-5-carbonitrile], the pIC50 was 6.00 to 6.30. The same measure, in the same setting: under `CC(C)[C@@H]1CN(c2nc(C3CC3)c3c(c2C#N)CC(C)(C)OC3)CCN1S(C)(=O)=O` [Compound 323, (R)-8-cyclopropyl-6-(3-isopropyl-4-(methylsulfonyl)piperazin-1-yl)-3,3-dimethyl-3,4-dihydro-1H-pyrano[3,4-c]pyridine-5-carbonitrile] stands 5.00 to 6.00. On the same count and under the same terms, under `COC(=O)C1CN(c2nc(C(C)C)c3c(c2C#N)CC(C)(C)OC3)CCN1C(=O)c1ccoc1` (stereo not drawn) [Compound 393, methyl 4-(5-cyano-8-isopropyl-3,3-dimethyl-3,4-dihydro-1H-pyrano[3,4-c]pyridin-6-yl)-1-(furan-3-carbonyl)piperazine-2-carboxylate] stands 6.00 to 6.30.

Regarding `CCOC(=O)[C@@H]1CN(c2nc(C(C)C)c3c(c2C#N)CC(C)(C)OC3)CCN1C(=O)c1ccoc1` [Compound 411], the pIC50 is 6.00 to 6.30.

As to `COc1cccc(CC(=O)N2CCN(c3nc(C(C)C)c4c(c3C#N)CC(C)(C)OC4)C[C@H]2C)c1` [Compound 221, (R)-8-isopropyl-6-(4-(2-(3-methoxyphenyl)acetyl)-3-methylpiperazin-1-yl)-3,3-dimethyl-3,4-dihydro-1H-pyrano[3,4-c]pyridine-5-carbonitrile], the pIC50 was 5.00 to 6.00. Consider `COC(=O)CCC(=O)N1CCN(c2nc(C3CC3)c3c(c2C#N)CC(C)(C)OC3)C[C@H]1C(C)C` [Compound 412, (R)-methyl 4-(4-(5-cyano-8-cyclopropyl-3,3-dimethyl-3,4-dihydro-1H-pyrano[3,4-c]pyridin-6-yl)-2-isopropylpiperazin-1-yl)-4-oxobutanoate], for which the pIC50 is over 6.30. On the same count and under the same terms, the figure for `Cc1occc1C(=O)N1CCN(c2nc(C(C)C)c3c(c2C#N)CC(C)(C)OC3)C(c2ccccc2)C1` (stereo not drawn) [Compound 179, 8-isopropyl-3,3-dimethyl-6-(4-(2-methylfuran-3-carbonyl)-2-phenylpiperazin-1-yl)-3,4-dihydro-1H-pyrano[3,4-c]pyridine-5-carbonitrile] is 5.00 to 6.00; for `C[C@@H]1CN(c2nc(C3CCCCC3)c3c(c2C#N)CCOC3)CCN1C(=O)c1ccco1` [Compound 162, (R)-8-cyclohexyl-6-(4-(furan-2-carbonyl)-3-methylpiperazin-1-yl)-3,4-dihydro-1H-pyrano[3,4-c]pyridine-5-carbonitrile] it is 5.00 to 6.00. As to `CC(C)c1nc(N2CCN(C(=O)Cc3ccccc3F)[C@H](C(C)C)C2)c(C#N)c2c1COC(C)(C)C2` [Compound 215, (R)-6-(4-(2-(2-fluorophenyl)acetyl)-3-isopropylpiperazin-1-yl)-8-isopropyl-3,3-dimethyl-3,4-dihydro-1H-pyrano[3,4-c]pyridine-5-carbonitrile], the pIC50 is 5.00 to 6.00. On the same count and under the same terms, the figure for `Cc1occc1C(=O)N1CCN(c2nc(C(C)C)c3c(c2C#N)CC(C)(C)OC3)C[C@H]1C` [Compound 163, (R)-8-isopropyl-3,3-dimethyl-6-(3-methyl-4-(2-methylfuran-3-carbonyl)piperazin-1-yl)-3,4-dihydro-1H-pyrano[3,4-c]pyridine-5-carbonitrile] is 6.00 to 6.30; for `CCC(=O)N1CCN(c2nc(C3CC3)c3c(c2C#N)CC(C)(C)OC3)C[C@H]1C(C)C` [Compound 354, (R)-8-cyclopropyl-6-(3-isopropyl-4-propionylpiperazin-1-yl)-3,3-dimethyl-3,4-dihydro-1H-pyrano[3,4-c]pyridine-5-carbonitrile] it is over 6.30; for `N#Cc1c(N2CCN(C(=O)c3ccco3)CC2)nc(C2CCCCC2)c2c1CCOC2` [Compound 110, 8-cyclohexyl-6-(4-(furan-2-carbonyl)piperazin-1-yl)-3,4-dihydro-1H-pyrano[3,4-c]pyridine-5-carbonitrile] it is 5.00 to 6.00. For the compound `CNC(=O)N1CCN(c2nc(C3CC3)c3c(c2C#N)CC(C)(C)OC3)C[C@H]1C(C)C` [Compound 344], the pIC50 is over 6.30. Same read-out and setting: the figure for `CCOC(=O)C1CN(c2nc(C3CCCCC3)c3c(c2C#N)CCOC3)CCN1C(=O)c1ccoc1C` (stereo not drawn) [Compound 277, ethyl 4-(5-cyano-8-cyclohexyl-3,4-dihydro-1H-pyrano[3,4-c]pyridin-6-yl)-1-(2-methylfuran-3-carbonyl)piperazine-2-carboxylate] is 5.00 to 6.00. The same measure, in the same setting: the figure for `CC1(C)Cc2c(C#N)c(N3CCN(C(=O)c4ccco4)C(C)(C)C3)nc(C3CC3)c2CO1` [Compound 319] is 5.00 to 6.00; for `CC(C)c1nc(N2CCN(C(=O)C(=O)c3ccccc3)[C@H](C)C2)c(C#N)c2c1COC(C)(C)C2` [Compound 157, (R)-8-isopropyl-3,3-dimethyl-6-(3-methyl-4-(2-oxo-2-phenylacetyl)piperazin-1-yl)-3,4-dihydro-1H-pyrano[3,4-c]pyridine-5-carbonitrile] it is 5.00 to 6.00; for `COC(=O)CN1CCN(c2nc(C3CCCCC3)c3c(c2C#N)CCOC3)C[C@H]1C` [Compound 342, (R)-methyl 2-(4-(5-cyano-8-cyclohexyl-3,4-dihydro-1H-pyrano[3,4-c]pyridin-6-yl)-2-methylpiperazin-1-yl)acetate] it is 5.00 to 6.00. The same measure, in the same setting: the figure for `CC(C)c1nc(N2C[C@@H](C)N(C(=O)NC3CCCCC3)[C@@H](C)C2)c(C#N)c2c1CCCC2` [Compound 109, (2S,6R)-4-(4-cyano-1-isopropyl-5,6,7,8-tetrahydroisoquinolin-3-yl)-N-cyclohexyl-2,6-dimethylpiperazine-1-carboxamide] is 5.00 to 6.00; for `COCCC(=O)N1CCN(c2nc(C3CC3)c3c(c2C#N)CC(C)(C)OC3)CC1C(=O)OC` (stereo not drawn) [Compound 388] it is 6.00 to 6.30. For `CC(C)[C@@H]1CN(c2nc(C3CC3)c3c(c2C#N)CC(C)(C)OC3)CCN1C(=O)Cn1ccc2ccccc21` [Compound 406, (R)-6-(4-(2-(1H-indol-1-yl)acetyl)-3-isopropylpiperazin-1-yl)-8-cyclopropyl-3,3-dimethyl-3,4-dihydro-1H-pyrano[3,4-c]pyridine-5-carbonitrile], the pIC50 is 5.00 to 6.00.

The same test, now with this note: IDH1 R132H enzyme, Table 3; read-out: R132H IC50.
As to `COCCC(=O)N1CCN(c2nc(C3CC3)c3c(c2C#N)CCN(CCO)C3)C[C@H]1C1CC1` [Compound 484, (R)-1-cyclopropyl-3-(3-cyclopropyl-4-(3-methoxypropanoyl)piperazin-1-yl)-7-(2-hydroxyethyl)-5,6,7,8-tetrahydro-2,7-naphthyridine-4-carbonitrile], the pIC50 is 6.00 to 6.30. Still for that read-out and setting: under `C=CS(=O)(=O)N1CCc2c(C#N)c(N3CCN(C)CC3)nc(C3CC3)c2C1` [Compound 503] stands 6.00 to 6.30.

As to `CC(C)[C@@H]1CN(c2nc(C3CC3)c3c(c2C#N)CC(C)(C)OC3)CCN1C(=O)CCc1ccco1` [Compound 447, (R)-8-cyclopropyl-6-(4-(3-(furan-2-yl)propanoyl)-3-isopropylpiperazin-1-yl)-3,3-dimethyl-3,4-dihydro-1H-pyrano[3,4-c]pyridine-5-carbonitrile], the pIC50 was 6.00 to 6.30. The same measure, in the same setting: the figure for `CC1(C)Cc2c(C#N)c(N3CCN(C(=O)CC4COC4)[C@H](C4CC4)C3)nc(C3CC3)c2CO1` [Compound 466, (R)-8-cyclopropyl-6-(3-cyclopropyl-4-(2-(oxetan-3-yl)acetyl)piperazin-1-yl)-3,3-dimethyl-3,4-dihydro-1H-pyrano[3,4-c]pyridine-5-carbonitrile] is 6.00 to 6.30.
